Article PMC6804113, “Cyclic Peptides Acting as Allosteric Inhibitors of Human Thymidylate Synthase and Cancer Cell Growth” (Molecules, 2019)
Read-outs that look alike come from different tables or passages of the source. Each block holds one compound with its values, some of them ahead of it. Starred links: 1 amine or outer side, 2 acyl side, 3 side chain; linkers in the order of their positions; H or OH if unused. Positions of bridges follow the written chain, without caps; N, C: chain ends. Non-standard residues stand in square brackets, D forms with d. Residues, ends and D or L forms follow the SMILES beside them. Cysteamide = C(CS[*:3])N[*:1]

Experiments:
[1] = disulfide bond, DMSO/TFA, H2O/DMSO/TFA 75:25:0.1
[2] = target: T1, recombinant human thymidylate synthase (hTS) (Homo sapiens, UniProt P04818); assay: hTS inhibition assay (spectrophotometric, absorbance at 340 nm); assay type: biochemical
T1 construct: made in house
T1 sequence (P04818 whole entry): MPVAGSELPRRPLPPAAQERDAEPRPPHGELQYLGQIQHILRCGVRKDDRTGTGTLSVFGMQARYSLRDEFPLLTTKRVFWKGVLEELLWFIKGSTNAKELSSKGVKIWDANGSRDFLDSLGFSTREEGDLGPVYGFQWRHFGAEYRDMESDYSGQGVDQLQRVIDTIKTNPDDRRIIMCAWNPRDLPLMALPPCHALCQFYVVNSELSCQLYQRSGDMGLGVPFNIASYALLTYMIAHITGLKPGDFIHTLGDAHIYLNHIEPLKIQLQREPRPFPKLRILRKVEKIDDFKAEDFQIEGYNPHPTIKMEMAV
Method: hTS was purified as previously reported. The enzyme solution was thawed the day of the experiment and the enzyme concentration was determined by UV−Vis spectroscopy (Varian Cary 100, Agilent, Santa Clara, CA, USA) using ε280 = 89000 M^−1 cm^−1 and Mr = 74 229. The thawed protein solution was kept constantly at 4 °C. In this condition, the enzyme was able to reproduce normal kinetic activity values (KM dUMP = 10−12 μM, KM mTHF = 4−6 μM, kcat = 0.8−0.9 s^−1). The peptide solution was mixed or vortexed in order to help solubilization; the precise concentration was determined through UV−Vis spectroscopy. A stock solution of mTHF was prepared in carbonate buffer. The stock was prepared in the range of 5 to 6 mM. A stock solution of dUMP was prepared in bidistilled water in the range of 10−12 mM. Peptide inhibitors were tested without incubation with hTS in […], at 25 °C. A 1 mL amount of assay buffer consisted of 50 mM TES, pH 7.4, containing 25 mM MgCl2, 6.5 mM HCHO, 1 mM EDTA, 75 mM β-mercaptoethanol (β-ME), 0.120 mM dUMP, and 0.060 mM mTHF. Following the addition of the enzyme (300 nM) and inhibitor mixture, the absorbance was monitored at 340 nm in a UV−Vis spectrophotometer for 3 min. In the control sample, an equal aliquot of enzyme alone was added. hTS activity inhibition percentages (I%) values were measured at 0.100−3000 µM concentration of inhibitor. […] The kinetic inhibition pattern was studied for compound 7 [12]. The inhibition values are expressed as mean ± SEM; n = 3.

[3] = target: T1, recombinant human thymidylate synthase (hTS); assay: as above; assay type: biochemical; remark: listed apart in the source
IGROV-1 cells = assay: Cytotoxicity, crystal violet cell growth assay, peptides transfected with SAINT-PhD; assay type: cell-based, human; details: at 10 and 25 µM, ranking among the 10 cPs, SAINT-PhD delivery
Method: The IGROV-1, A2780, and A2780/CP human ovarian cancer cell lines were grown as monolayer in RPMI 1640 medium containing 10% heat-inactivated fetal bovine serum and 50 µg/mL gentamycin sulfate (Euroclone, Devon, UK). Cultures were equilibrated with humidified 5% CO2 in air at 37 °C. The cDDP-resistant variant A2780/CP cell line, derived from the parent A2780 cell line, is about 10-fold resistant to cDDP and was developed by monthly exposure to cDDP, followed by chronic exposure to stepwise increases in cDDP concentration. All studies were performed in Mycoplasma negative cells, as routinely determined with the MycoAlert Mycoplasma detection kit (Lonza, Walkersville, MD, USA).
Treatment with each peptide was performed according to the standard transfection protocol of the SAINT-PhD delivery system (Synvolux Therapeutics, Leiden, Netherlands). Complexes of peptide (µg) with SAINT-PhD (µL) were prepared at appropriate ratios corresponding to the approximate µM concentrations indicated. For each protein sample, complexes were prepared as follows: for the treatment of a 24-well plate, the appropriate amount of each peptide was diluted in HBS, then SAINT-PhD was pipetted into the solution without vortexing; then, the mixture was incubated for 5 min at room temperature, and filled up to 500 µL with serum-free medium. The culture medium was aspirated from the cells, the SAINT-PhD/peptide complex was added to the wells and incubated 4 h (37 °C, 5% CO2). Afterward, complete RPMI was added to reach the appropriate volume for maintaining the cell culture for the duration of the experiments.
Cell growth was determined using a modified crystal violet assay. On selected days, the tissue culture medium was removed, and the cell monolayer fixed with methanol and stained with 0.2% crystal violet solution in 20% methanol for at least 30 min. After being washed several times with distilled water to remove excess dye, the cells were left to dry. The incorporated dye was solubilized in acidified isopropanol (1N HCl: 2-propanol, 1:10). After appropriate dilution, absorbance was determined spectrophotometrically at 540 nm. The extracted dye was proportional to cell biomass. The percentage of cytotoxicity was calculated by comparing the absorbance of cultures exposed to the drug to unexposed (control) cultures.

SMILES: CC(C)C[C@@H]1NC(=O)[C@@H](CCC(N)=O)NC(=O)[C@@H](NC(=O)[C@H](CO)NC(=O)[C@@H](N)CC(C)C)CSSC[C@@H](C(=O)N[C@@H](CCCNC(=N)N)C(=O)O)NC(=O)[C@H](Cc2ccc(O)cc2)NC1=O [Leu-Ser-c[Cys-D-Gln-Leu-Tyr-Cys-]Arg]
ring closure, yield after HPLC ([1]; from H-Leu-Ser-Cys-dGln-Leu-Tyr-Cys-Arg-OH, 17-membered ring, 1.01 mM): 29%

SMILES: CC(C)C[C@@H]1NC(=O)[C@@H](CCC(N)=O)NC(=O)[C@@H](NC(=O)[C@H](CO)NC(=O)[C@@H](N)CC(C)C)CSSCCNC(=O)[C@H](CCCNC(=N)N)NC(=O)[C@H](CCC(N)=O)NC(=O)[C@H](Cc2ccc(O)cc2)NC1=O [Leu-Ser-c[Cys-D-Gln-Leu-Tyr-Gln-Arg-CAM-]]
ring closure, yield after HPLC ([1]; from H-Leu-Ser-Cys-dGln-Leu-Tyr-Gln-Arg-NHCH2CH2SH, 23-membered ring, 0.94 mM): 13%

SMILES: CC(C)C[C@@H]1NC(=O)[C@@H](CCC(N)=O)NC(=O)[C@@H](NC(=O)[C@H](CO)NC(=O)[C@@H](N)CC(C)C)CSSC[C@@H](C(=O)O)NC(=O)[C@H](CCC(N)=O)NC(=O)[C@H](Cc2ccc(O)cc2)NC1=O [Leu-Ser-c[Cys-D-Gln-Leu-Tyr-Gln-Cys-]]
ring closure, yield after HPLC ([1]; from H-Leu-Ser-Cys-dGln-Leu-Tyr-Gln-Cys-OH, 20-membered ring, 1.04 mM): 18%

SMILES: CC(C)C[C@@H]1NC(=O)[C@H](CCC(N)=O)NC(=O)[C@@H](NC(=O)[C@H](CO)NC(=O)[C@@H](N)CC(C)C)CSSCCNC(=O)[C@H](CCCNC(=N)N)NC(=O)[C@H](CCC(N)=O)NC(=O)[C@H](Cc2ccc(O)cc2)NC1=O [Leu-Ser-c[Cys-Gln-Leu-Tyr-Gln-Arg-CAM-]]
ring closure, yield after HPLC ([1]; from H-Leu-Ser-Cys-Gln-Leu-Tyr-Gln-Arg-NHCH2CH2SH, 23-membered ring, 0.94 mM): 15%

SMILES: CC(C)C[C@@H]1NC(=O)[C@H](CCC(N)=O)NC(=O)[C@H](C)NC(=O)[C@@H](NC(=O)[C@@H](N)CC(C)C)CSSC[C@@H](C(=O)O)NC(=O)[C@H](CCC(N)=O)NC(=O)[C@H](Cc2ccc(O)cc2)NC1=O [Leu-c[Cys-Ala-Gln-Leu-Tyr-Gln-Cys]]
ring closure, yield after HPLC ([1]; from H-Leu-Cys-Ala-Gln-Leu-Tyr-Gln-Cys-OH, 23-membered ring, 1.06 mM): 30%

SMILES: CC(C)C[C@@H]1NC(=O)[C@H](CCC(N)=O)NC(=O)[C@@H]2CCCN2C(=O)[C@@H](NC(=O)[C@@H](N)CC(C)C)CSSC[C@@H](C(=O)N[C@@H](CCC(N)=O)C(=O)N[C@@H](CCCNC(=N)N)C(=O)O)NC1=O [Leu-c[Cys-Pro-Gln-Leu-Cys-]Gln-Arg]
ring closure, yield after HPLC ([1]; from H-Leu-Cys-Pro-Gln-Leu-Cys-Gln-Arg-OH, 17-membered ring, 1.04 mM): 25%

SMILES: CC(C)C[C@@H]1NC(=O)[C@H](CCC(N)=O)NC(=O)[C@@H]2CCCN2C(=O)[C@@H](NC(=O)[C@@H](N)CC(C)C)CSSC[C@@H](C(=O)N[C@@H](CCCNC(=N)N)C(=O)O)NC(=O)[C@H](Cc2ccc(O)cc2)NC1=O [Leu-c[Cys-Pro-Gln-Leu-Tyr-Cys-]Arg]
ring closure, yield after HPLC ([1]; from H-Leu-Cys-Pro-Gln-Leu-Tyr-Cys-Arg-OH, 20-membered ring, 1.0 mM): 18%

SMILES: CC(C)C[C@@H]1NC(=O)[C@H](CCC(N)=O)NC(=O)[C@@H]2CCCN2C(=O)[C@@H](NC(=O)[C@@H](N)CC(C)C)CSSCCNC(=O)[C@H](CCCNC(=N)N)NC(=O)[C@H](CCC(N)=O)NC(=O)[C@H](Cc2ccc(O)cc2)NC1=O [Leu-c[Cys-Pro-Gln-Leu-Tyr-Gln-Arg-CAM]]
ring closure, yield after HPLC ([1]; from H-Leu-Cys-Pro-Gln-Leu-Tyr-Gln-Arg-NHCH2CH2SH, 26-membered ring, 0.93 mM): 10%

SMILES: CC(C)C[C@@H]1NC(=O)[C@H](CCC(N)=O)NC(=O)[C@@H]2CCCN2C(=O)[C@@H](NC(=O)[C@@H](N)CC(C)C)CSSC[C@@H](C(=O)O)NC(=O)[C@H](CCC(N)=O)NC(=O)[C@H](Cc2ccc(O)cc2)NC1=O [Leu-c[Cys-Pro-Gln-Leu-Tyr-Gln-Cys-]]
ring closure, yield after HPLC ([1]; from H-Leu-Cys-Pro-Gln-Leu-Tyr-Gln-Cys-OH, 23-membered ring, 1.03 mM): 22%

SMILES: CC(C)C[C@@H]1NC(=O)[C@H](CCC(N)=O)NC(=O)[C@@H](NC(=O)[C@H](CO)NC(=O)[C@@H](N)CC(C)C)CSSCCNC(=O)[C@H](CCCNC(=N)N)NC(=O)[C@H](CCC(N)=O)NC(=O)[C@H](Cc2ccc(O)cc2)NC1=O [Peptide 1, Leu-Ser-c[Cys-Gln-Leu-Tyr-Gln-Arg-CAM]] (H-LSCQLYQR-Cysteamide; disulfide 3-C)
inhibition at 400 µM ([2]; at 400 µM and r.t. under stirring): 25%
IC50 ([3]; room temperature (20–22 °C) under stirring, standard error ±20% of the value): 2120 µM

SMILES: CC(C)C[C@@H]1NC(=O)[C@@H](CCC(N)=O)NC(=O)[C@@H](NC(=O)[C@H](CO)NC(=O)[C@@H](N)CC(C)C)CSSCCNC(=O)[C@H](CCCNC(=N)N)NC(=O)[C@H](CCC(N)=O)NC(=O)[C@H](Cc2ccc(O)cc2)NC1=O [Peptide 3, Leu-Ser-c[Cys-D-Gln-Leu-Tyr-Gln-Arg-CAM]] (H-LSC[dQ]LYQR-Cysteamide; disulfide 3-C)
% inhibition of hTS ([2]; at 500 µM and r.t.): inactive

% inhibition of hTS ([2]; at 500 µM and r.t.): inactive
SMILES: CC(C)C[C@@H]1NC(=O)[C@@H](CCC(N)=O)NC(=O)[C@@H](NC(=O)[C@H](CO)NC(=O)[C@@H](N)CC(C)C)CSSC[C@@H](C(=O)O)NC(=O)[C@H](CCC(N)=O)NC(=O)[C@H](Cc2ccc(O)cc2)NC1=O [Peptide 4, Leu-Ser-c[Cys-D-Gln-Leu-Tyr-Gln-Cys]] (H-LSC[dQ]LYQC-OH; disulfide 3-8)
cytotoxicity (in words) (IGROV-1 cells): least active

SMILES: CC(C)C[C@@H]1NC(=O)[C@@H](CCC(N)=O)NC(=O)[C@@H](NC(=O)[C@H](CO)NC(=O)[C@@H](N)CC(C)C)CSSC[C@@H](C(=O)N[C@@H](CCCNC(=N)N)C(=O)O)NC(=O)[C@H](Cc2ccc(O)cc2)NC1=O [Peptide 5, Leu-Ser-c[Cys-D-Gln-Leu-Tyr-Cys]-Arg] (H-LSC[dQ]LYCR-OH; disulfide 3-7; N-terminus assumed)
% inhibition of hTS ([2]; at 500 µM and r.t.): N.I. at 500 µM and r.t. N.I. at 500 µM and 37 °C under stirring
% inhibition of hTS ([3]; at 500 µM and 37 °C under stirring): N.I. at 500 µM and r.t. N.I. at 500 µM and 37 °C under stirring

inhibition at 100 µM ([2]; at 100 µM and r.t. under stirring): 59%
inhibition at 500 µM ([2]; at 500 µM and r.t.): 76%
Ki ([2]; kinetic inhibition pattern, Figure S1, read-out: apparent KI): 120 to 150 µM
SMILES: CC(C)C[C@@H]1NC(=O)[C@H](CCC(N)=O)NC(=O)[C@@H]2CCCN2C(=O)[C@@H](NC(=O)[C@@H](N)CC(C)C)CSSC[C@@H](C(=O)N[C@@H](CCCNC(=N)N)C(=O)O)NC(=O)[C@H](Cc2ccc(O)cc2)NC1=O [Peptide 7, Leu-c[Cys-Pro-Gln-Leu-Tyr-Cys]-Arg] (H-LCPQLYCR-OH; disulfide 2-7)
cytotoxicity (in words) (IGROV-1 cells): intermediate cytotoxicities

SMILES: CC(C)C[C@@H]1NC(=O)[C@H](CCC(N)=O)NC(=O)[C@@H]2CCCN2C(=O)[C@H](CO)NC(=O)[C@@H](N)CSSC[C@@H](C(=O)O)NC(=O)[C@H](CCC(N)=O)NC(=O)[C@H](Cc2ccc(O)cc2)NC1=O [c[Cys-Ser-Pro-Gln-Leu-Tyr-Gln-Cys]]
ring closure, yield after HPLC ([1]; from H-Cys-Ser-Pro-Gln-Leu-Tyr-Gln-Cys-OH, 26-membered ring, 1.06 mM): 25%
